Assay results published in ChEMBL document CHEMBL1201862, “PubChem BioAssay data set” (2004).
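Each compound was tested at five concentrations against cells in 96-well plates for 48 hours. GI50 = concentration required for 50% inhibition of growth.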 Active and inactive are the calls of the source. Rule as the data show it: active = GI50 up to about 1.1 µM and inactive = higher. Square brackets hold non-standard residues; d marks the D form. Peptide text beside a SMILES is read from it. * marks the point of attachment. ξ: configuration not given here. ξW = NC(Cc1c[nH]c2ccccc12)C(=O)O; X29 = O=C(O)[C@H]1CCC[C@H]1N*; ξF = NC(Cc1ccccc1)C(=O)O; Boc = CC(C)(C)OC(=O)*; ξK = NCCCCC(N)C(=O)O; ξT = CC(O)C(N)C(=O)O; tBu = CC(C)(C)*

Tests used:
Assay in all cases: inhibition of tumour cell growth, NCI panel, 48 h
UACC-257 = tested on: UACC-257
HOP-62 = tested on: HOP-62
SK-MEL-28 = tested on: SK-MEL-28
SK-MEL-5 = tested on: SK-MEL-5
SF-268 = tested on: SF-268
NCI-H226 = tested on: NCI-H226
Malme-3M = tested on: Malme-3M
SK-OV-3 = tested on: SK-OV-3
A549 = tested on: A549
OVCAR-3 = tested on: OVCAR-3
OVCAR-8 = tested on: OVCAR-8
MDA-MB-231 = tested on: MDA-MB-231
OVCAR-5 = tested on: OVCAR-5
HCT-116 = tested on: HCT-116
M14 = tested on: M14
MDA-MB-435 = tested on: MDA-MB-435
HL-60 = tested on: HL-60
A498 = tested on: A498
MCF7 = tested on: MCF7

Measured: GI50

O=[N+]([O-])c1ccc2[nH]nc(OCc3ccccc3Cl)c2c1
inactive: UACC-257 > 100 µM | HOP-62 37.8 µM | SK-MEL-28 > 100 µM | SK-MEL-5 26.5 µM | SF-268 68.7 µM | NCI-H226 68.5 µM | Malme-3M 98.9 µM | SK-OV-3 13.8 µM | A549 39.4 µM | OVCAR-3 23.4 µM | OVCAR-8 27 µM | MDA-MB-231 > 100 µM | OVCAR-5 52.6 µM | HCT-116 27.4 µM | M14 > 100 µM | MDA-MB-435 > 100 µM | HL-60 > 100 µM | A498 37.5 µM

C[C@]12CC(C=O)C(=O)C(O)=C1CC[C@@H]1C2CC[C@@]2(C)C1CC[C@]2(C)O (stereo not given in full)
inactive: UACC-257 24.2 µM | HOP-62 22.1 µM | SK-MEL-28 25.8 µM | SK-MEL-5 17.6 µM | SF-268 25.4 µM | NCI-H226 18.6 µM | Malme-3M 5.06 µM | SK-OV-3 21.4 µM | A549 57.4 µM | OVCAR-3 24.8 µM | OVCAR-8 28.8 µM | OVCAR-5 16.5 µM | HCT-116 20 µM | M14 16.8 µM | HL-60 15.8 µM | A498 22.1 µM

CN(C)/C=N\c1ccn(CCO)c(=O)n1
inactive: UACC-257 > 100 µM | HOP-62 > 100 µM | SK-MEL-28 > 100 µM | SK-MEL-5 > 100 µM | SF-268 > 100 µM | NCI-H226 > 100 µM | Malme-3M > 100 µM | SK-OV-3 > 100 µM | A549 > 100 µM | OVCAR-3 > 100 µM | OVCAR-8 > 100 µM | OVCAR-5 > 100 µM | HCT-116 > 100 µM | M14 > 100 µM | HL-60 > 100 µM | A498 > 100 µM

CCc1cc(Cc2cc(Cl)c(NC(=O)C(=O)C3NC(=O)NC3=O)c(CC)c2)cc(Cl)c1NC(=O)C(=O)C1NC(=O)NC1=O (stereo not given)
inactive: UACC-257 30.6 µM | HOP-62 > 100 µM | SK-MEL-28 37.5 µM | SK-MEL-5 > 100 µM | SF-268 20.7 µM | NCI-H226 > 100 µM | Malme-3M > 100 µM | SK-OV-3 33.9 µM | A549 75 µM | OVCAR-3 36.8 µM | OVCAR-8 21.4 µM | OVCAR-5 > 100 µM | HCT-116 31.3 µM | M14 48.5 µM | HL-60 35.2 µM | A498 > 100 µM

CC(OC(C)(C)C)C(NC(=O)C(CCCCNC(=O)OC(C)(C)C)NC(=O)C(Cc1c[nH]c2ccccc12)NC(=O)C(N)Cc1ccccc1)C(=O)NC(Cc1ccccc1)C(=O)N[C@@H]1CCC[C@@H]1C(=O)O (stereo not given in full) (H-[ξF][ξW][ξK](Boc)[ξT](tBu)[ξF]-X29)
inactive: UACC-257 > 100 µM | HOP-62 > 100 µM | SK-MEL-28 75.5 µM | SK-MEL-5 11.1 µM | SF-268 44.8 µM | NCI-H226 28.5 µM | Malme-3M 40 µM | SK-OV-3 38.8 µM | A549 > 100 µM | OVCAR-3 37.1 µM | OVCAR-8 > 100 µM | MDA-MB-231 38.6 µM | OVCAR-5 23.2 µM | MCF7 27 µM | HCT-116 39.5 µM | M14 > 100 µM | MDA-MB-435 37.2 µM | HL-60 29 µM

CC(C)(C)OC(=O)N1CC(C)(C)N2C(=O)C3(CCCO3)C12 (stereo not given)
inactive: UACC-257 > 100 µM | HOP-62 > 100 µM | SK-MEL-28 > 100 µM | SK-MEL-5 > 100 µM | SF-268 > 100 µM | NCI-H226 > 100 µM | Malme-3M > 100 µM | SK-OV-3 > 100 µM | A549 > 100 µM | OVCAR-3 > 100 µM | OVCAR-8 > 100 µM | OVCAR-5 > 100 µM | HCT-116 > 100 µM | M14 > 100 µM | HL-60 > 100 µM | A498 > 100 µM
